Laboratory results taken from doi:10.1101/2022.05.03.490502v1 (biorxiv, 2022).

How the values were obtained:
[1] = molecular target: T1, LAT1 (hLAT1; LAT1/4F2hc) (Homo sapiens, UniProt Q01650); test: cis-inhibition of [3H]-gabapentin uptake, TREx HEK-hLAT1 cells; format: cell-based
[2] = molecular target: T1, LAT1 (hLAT1; LAT1/4F2hc); test: cell-based; parameters: species or system TREx HEK-hLAT1

T1 sequence (Q01650 whole entry): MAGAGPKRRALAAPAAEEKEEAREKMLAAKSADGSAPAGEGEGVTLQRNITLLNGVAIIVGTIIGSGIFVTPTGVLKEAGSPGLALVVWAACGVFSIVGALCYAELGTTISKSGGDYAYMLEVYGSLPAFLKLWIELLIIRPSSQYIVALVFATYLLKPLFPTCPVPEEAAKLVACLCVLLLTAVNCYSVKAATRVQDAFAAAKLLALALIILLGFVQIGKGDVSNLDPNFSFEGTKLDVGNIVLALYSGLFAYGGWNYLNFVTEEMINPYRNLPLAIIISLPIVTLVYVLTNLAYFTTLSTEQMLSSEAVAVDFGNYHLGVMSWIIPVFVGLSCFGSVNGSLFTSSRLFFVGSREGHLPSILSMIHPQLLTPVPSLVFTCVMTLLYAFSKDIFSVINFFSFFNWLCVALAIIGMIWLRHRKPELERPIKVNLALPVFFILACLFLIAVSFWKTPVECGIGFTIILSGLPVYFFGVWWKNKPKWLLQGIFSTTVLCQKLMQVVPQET
T1 sequence (P08195 103-630 partner): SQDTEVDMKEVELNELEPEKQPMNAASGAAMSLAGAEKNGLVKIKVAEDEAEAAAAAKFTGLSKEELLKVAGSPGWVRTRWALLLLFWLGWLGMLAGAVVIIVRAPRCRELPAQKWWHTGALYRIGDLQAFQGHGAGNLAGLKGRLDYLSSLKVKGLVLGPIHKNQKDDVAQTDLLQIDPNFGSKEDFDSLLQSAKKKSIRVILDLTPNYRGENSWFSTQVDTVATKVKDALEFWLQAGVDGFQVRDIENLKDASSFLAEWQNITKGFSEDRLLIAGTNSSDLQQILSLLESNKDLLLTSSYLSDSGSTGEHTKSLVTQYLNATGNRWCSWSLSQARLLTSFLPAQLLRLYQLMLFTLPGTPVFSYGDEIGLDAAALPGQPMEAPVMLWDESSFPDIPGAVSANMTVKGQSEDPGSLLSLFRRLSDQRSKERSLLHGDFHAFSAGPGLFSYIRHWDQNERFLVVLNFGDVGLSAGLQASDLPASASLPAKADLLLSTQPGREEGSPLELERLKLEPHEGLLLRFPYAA

SMILES | IC50 [1] [µM] | IC50 [2] [µM]
N[C@@H](CNC(=O)OCC1c2ccccc2-c2ccccc21)C(=O)O [KH1] | 44.4 | 
N[C@@H](Cc1ccccc1)C(=O)O [L-Phe] |  | 91.8
N[C@@H](Cc1ccc(/N=N/c2ccccc2)cc1)C(=O)O [EN14] |  | 16
N[C@@H](Cc1c[nH]c2ccc(OCc3ccccc3)cc12)C(=O)O [KH13] | 11.8 | 
NC(Cc1ccc(O)c(OCc2ccccc2)c1)C(=O)O (centres unmarked) [EN2] | 63.3 | 
